The values below come from patent US7462228B2, “Water-base black ink composition and colored product” (Nippon Kayaku Kabushiki Kaisha, priority 2003, dated 2008).

The nature of data set [1]: Solubility in water of the dye compound. In kind it is physicochemical.
The nature of data set [2]: Maximum absorption wavelength in water (λmax). In kind it is physicochemical.

Converted amounts (≈) assume the structure as drawn.

Broadly, the solubility is how much of the substance goes into solution per volume. A low value points to a poorly soluble substance. On to `Nc1c(N=Nc2ccc3cc(S(=O)(=O)O)c(N=Nc4ccccc4S(=O)(=O)O)c(O)c3c2)c(S(=O)(=O)O)cc2cc(S(=O)(=O)O)c(N=Nc3ccc4cc(S(=O)(=O)O)c(N=Nc5ccccc5S(=O)(=O)O)c(O)c4c3)c(O)c12` [No. 2-11], for which, in data set [1], the solubility is ≥ 100 mg/mL. Besides, in data set [2], the “maximum absorption wavelength in water (λmax)” value (from here on “maximum absorption wavelength”) was 660 nm.

For the molecule `COc1ccc(N=Nc2c(S(=O)(=O)O)cc3c(S(=O)(=O)O)c(N=Nc4c(S(=O)(=O)O)cc5cc(S(=O)(=O)O)c(N=Nc6ccc7c(O)c(N=Nc8ccccc8S(=O)(=O)O)c(S(=O)(=O)O)cc7c6)c(O)c5c4N)ccc3c2O)c(S(=O)(=O)O)c1` [No. 2-28], the solubility in data set [1] was ~100 mg/mL (≈ 77 mM). Moreover, the “maximum absorption wavelength” value in data set [2] is 645 nm.

Turning to `COc1ccc(N=Nc2c(S(=O)(=O)O)cc3cc(N=Nc4c(S(=O)(=O)O)cc5cc(S(=O)(=O)O)c(N=Nc6ccc7cc(S(=O)(=O)O)c(N=Nc8ccccc8S(=O)(=O)O)c(O)c7c6)c(N)c5c4O)ccc3c2O)c(S(=O)(=O)O)c1` [No. 2-3], the solubility in data set [1] is ≥ 100 mg/mL. Further, the “maximum absorption wavelength” value in data set [2] is given as 650 nm.

With `COc1ccc(N=Nc2c(S(=O)(=O)O)cc3cc(N=Nc4c(S(=O)(=O)O)cc5cc(S(=O)(=O)O)c(N=Nc6ccc7cc(S(=O)(=O)O)c(N=Nc8cc(S(=O)(=O)O)ccc8S(=O)(=O)O)c(O)c7c6)c(N)c5c4O)ccc3c2O)c(S(=O)(=O)O)c1` [No. 2-29], in data set [1], the solubility is ≥ 100 mg/mL. Moreover, in data set [2], the “maximum absorption wavelength” value is 646 nm.

On to `COc1ccc(N=Nc2c(S(=O)(=O)O)cc3cc(N=Nc4c(S(=O)(=O)O)cc5cc(S(=O)(=O)O)c(N=Nc6cc7c(O)c(N=Nc8ccc(OC)cc8S(=O)(=O)O)c(S(=O)(=O)O)cc7cc6S(=O)(=O)O)c(N)c5c4O)ccc3c2O)c(S(=O)(=O)O)c1` [No. 2-2], for which the solubility in data set [1] is ≥ 100 mg/mL. Further, the “maximum absorption wavelength” value in data set [2] was found to be 657 nm.

Regarding `COc1ccc(N=Nc2c(S(=O)(=O)O)cc3c(S(=O)(=O)O)c(N=Nc4c(S(=O)(=O)O)cc5cc(S(=O)(=O)O)c(N=Nc6ccc7c(O)c(N=Nc8ccc(OC)cc8S(=O)(=O)O)c(S(=O)(=O)O)cc7c6S(=O)(=O)O)c(O)c5c4N)ccc3c2O)c(S(=O)(=O)O)c1` [No. 2-4], the solubility in data set [1] was ≥ 100 mg/mL. Moreover, in data set [2], the “maximum absorption wavelength” value was 559 nm.

For `COc1ccc(N=Nc2c(S(=O)(=O)O)cc3cc(N=Nc4c(S(=O)(=O)O)cc5cc(S(=O)(=O)O)c(N=Nc6ccc7cc(S(=O)(=O)O)c(N=Nc8ccc(OC)cc8S(=O)(=O)O)c(O)c7c6)c(N)c5c4O)ccc3c2O)c(S(=O)(=O)O)c1` [No. 2-1], the solubility in data set [1] is ~100 mg/mL (≈ 80.1 mM). Further, the “maximum absorption wavelength” value in data set [2] turned out to be 647 nm.

`COc1ccc(N=Nc2c(S(=O)(=O)O)cc3cc(N=Nc4c(S(=O)(=O)O)cc5cc(S(=O)(=O)O)c(N=Nc6ccc7cc(S(=O)(=O)O)c(N=Nc8ccc([N+](=O)[O-])cc8S(=O)(=O)O)c(O)c7c6)c(N)c5c4O)ccc3c2O)c(S(=O)(=O)O)c1` [No. 2-5]: in data set [1], the solubility is ≥ 100 mg/mL. The “maximum absorption wavelength” value in data set [2] amounted to 652 nm.
